From patent publication US11440939B2, “Anticancer peptides” (IDP DISCOVERY PHARMA, S.L., priority 2017, dated 2022) come the findings set out here.

Numbered stars: 1 amine (or outer) side, 2 acyl side, 3 side chain; on linkers, the order of the positions; unused ones are H or OH. Bridge positions count the residues as written; N and C are the ends. Square brackets hold non-standard residues; d marks the D form. Peptide text beside a SMILES is read from it. ξ: configuration not given here. ξαMeNle(6-ylidene) = CC(CCCC=[*:3])(N[*:1])C(=O)[*:2]; X1 = CC(CCCCCCC=[*:3])(N[*:1])C(=O)[*:2]

Common to all, as to type: cell-based
In one data set the test system is HL-60. The procedure: HL-60, promyeloblast (acute myelocytic leukemia, AML), ECACC: 98070106;
(§1) Cell line MCF-7 was cultured in incubator under CO2 (6%) at 37° C. in DMEM high glucose (Dulbecco's Modified Eagle Solution, Gibco-BRL 31966-21) medium with 10% fetal bovine serum inactivated (FBS) (Gibco-BRL 10106-169). Cell lines HL-60, NCI-H524, NCI-H526, NCI-H69, NCI-H82, NCI-H187 and H5B were cultured in an incubator at 37° C. in RPMI-1640 (Sigma R8758) medium with 10% of fetal bovine serum inactivated (FBS) and 2 mM glutamine (Sigma G7513). Cell line NCI-H510A was cultured in incubator in F12K medium with 10% of fetal bovine serum inactivated (FBS). […]
(§2) During the amplification step and the assays, adherent cells were rinsed with DPBS (Dulbecco's Phosphate Buffered Saline, Sigma D1283) three times and afterward treated for 5 minutes with trypsin ([…]) (Gibco-BRL, 15400054) in solution of DPBS at 37° C., and, once detached, transferred in the culturing medium. […] Cells were counted in a Neubauer chamber after labelling with Tripan-Blue. […]
(§3) Cells were incubated during 72 h in incubator under CO2 atmosphere at 37° C. Cell viability was measured by means of MTT (3-(4,5-dimethylthiazol-2-yl)-2,5-diphenyltetrazolium bromide) assay, Alamar Blue® (Biosource DAL1100) and Hexosaminidase activity test, consecutively, following manufacturer instructions.
(§4) MTT: 1. […] Absorbance at 570 nm was finally measured. […]

The test system of the next data set is MCF-7. Here is the method:
MCF-7, epithelial (breast cancer), ECACC: 86012803;
as §1, §2, §3, §4

Data set [1] is described as follows: Hepatotoxicity assay, trypan blue exclusion, 24 h. The following applies: female, primary human hepatocytes, human hepatocytes, 24 h. An excerpt:
(§5) NCI-510A, epithelial (small cell lung cancer, SCLC), ATCC-HBT-124; and Hepatocytes (normal liver), from a donor was provided by Foundation DTI-Donation & Transplantation Institute from surgical wastes and from organs not suitable for transplantation
(§6) Human liver from a donor was subjected to hepatocyte isolation by using a two-step tissue microperfusion technique taking maximum care to avoid anoxia before cannulation, since hepatocytes are cells highly sensitive to oxygen levels. An initial anoxic state could result in a low viability of the cells, and will later affect their metabolic capacity in the culture. Briefly, liver tissue was cannulated by using the accessible vessels with a 1 mm-diameter needle. A balanced salt solution was injected to clean the organ by using a peristaltic pump adjusted to a flow rate of 18-20 ml/min. After washing, a solution containing collagenase was added for liver disintegration. The cell suspension obtained using this process was filtered and centrifuged and, after a couple of washings to remove collagenase, cells were re-suspended in culture medium Ham's F-12/William (1:1) medium supplemented with 2 mM glutamine, […] sodium selenite, 2% newborn calf serum, 50 mU/ml penicillin, 50 μg/ml streptomycin, 0.1% bovine serum albumin, 1.68 mM NAME, 26 mM sodium bicarbonate, 25 μg/ml transferrin, 65.5 μM ethanolamine, 7.2 μM linoleic acid, 17.5 mM glucose, 6.14 mM ascorbic acid and 10 nM insulin.
(§7) After resuspension, a cell aliquot was removed and viability was determined by cell counting using the trypan blue exclusion method. Trypan blue uptake is the result of cell membrane alteration and in consequence of cell death. Thus, to quantify cell viability, 0.4% trypan blue in saline was added to the cells and these were immediately loaded in a Neubauer chamber. Viable cells were counted in 5 different fields under the optical microscope as non-blue cells. % Viability=Number of non-blue cells×100/Number of total cells Viability and Hepatoxicity Assay
(§8) Human hepatocytes isolated and re-suspended as described before were seeded at 100,000 viable cells/well on 96 collagen-coated plates in order to assess compound's cytotoxicity. After 1 hour in culture, medium was renewed to eliminate cell debris. Cultured human hepatocytes were allowed to stay in culture for 24 hours prior performing the experiments. After 24 h, the compounds to be tested were added to calculate the dose/response curve at the starting concentration of 400 μM with serial dilutions. Each experiment was performed in triplicate. Cells were incubated during 24 h in incubator under CO2 atmosphere at 37° C.
(§9) The viability was determined by cell counting using the trypan blue exclusion method. % Viability=Number of non-blue cells×100/Number of total cells Statistics

A further data set deals with Human hepatocytes. The data set can be described thus: Hepatotoxicity assay, trypan blue exclusion, 24 h. The following applies: dose of 4 and 14 μM.
Excerpt: as §5, §6, §7, §8, §9

The next data set deals with NCI-H187. Particulars: 72 h. The procedure:
NCI-H187, epithelial (small cell lung cancer, SCLC), ATCC-CRL-5804;
Cell line MCF-7 was cultured in incubator under CO2 (6%) at 37° C. in DMEM high glucose (Dulbecco's Modified Eagle Solution, Gibco-BRL 31966-21) medium with 10% fetal bovine serum inactivated (FBS) (Gibco-BRL 10106-169). Cell lines HL-60, NCI-H524, NCI-H526, NCI-H69, NCI-H82, NCI-H187 and H5B were cultured in an incubator at 37° C. in RPMI-1640 (Sigma R8758) medium with 10% of fetal bovine serum inactivated (FBS) and 2 mM glutamine (Sigma G7513). Cell line NCI-H510A was cultured in incubator in F12K medium with 10% of fetal bovine serum inactivated (FBS). Cell line GBM-18 and GBM-27 were cultured in incubator under CO2 (6%) at 37° C. in complete medium (Neurobasal+B27+Glutamax+Growth factors).
During the amplification step and the assays, adherent cells were rinsed with DPBS (Dulbecco's Phosphate Buffered Saline, Sigma D1283) three times and afterward treated for 5 minutes with trypsin ([…]) (Gibco-BRL, 15400054) in solution of DPBS at 37° C., and, once detached, transferred in the culturing medium. No-adherent cells were centrifuged and transferred in the culturing medium. Cells were counted in a Neubauer chamber after labelling with Tripan-Blue.
MCF-7, NCI-H187, NCI-H69, NCI-H526 and H5B cells were seeded at a density of 5000 cells/well; NCI-H524 and NCI-H82 were seeded at a density of 2500 cells/well; HL-60 and NCI-H510A at 10000 cells/well in 100 μl of medium in 96 well plates. After 24 h, the compounds to be tested were added to calculate the dose/response curve at the starting concentration of 100 μM with serial dilutions (1:1). Controls were the untreated cells. Each experiment was performed in triplicate.
as §3
MTT: 1. Stock solution of MTT (475989 Calbiochem) was 5 mg/ml in PBS 1×. As negative control (experiment noise) 3 wells were treated with 20 μl/well of a solution of SDS 10% in H2O. The same control was used for Alamar Blue/Hexosaminidase. 10 μl/well of MTT solution were added and the plate was incubated for 3-4 hr. The medium was discarded and 100 μl of extracting buffer (PBS 1×, 15% SDS, 50% […] N,N-Dimethylformamide, pH 4,7) were added to each well. Plates were incubated for 16 h at room temperature under orbital shaking. Absorbance at 570 nm was finally measured.
Alamar Blue: 10 μl Alamar Blue solution was added to each well and the plates were incubated for […] in the incubator. Fluorescence ratio at 535/590 (excitation/emission) was measured in Cytofluor (Millipore) fluorimeter. Blank control was determined by lysis of untreated cells with con 2% of Triton X100, right before adding Alamar Blue solution.
Hexosaminidase activity test: after Alamar Blue lecture, medium was discarded and plates were rinsed once with PBS. 60 μl hexosaminidase substrate (p-nitrophenol-N-acetyl-beta-D-glucosamide 7.5 mM [Sigma N-9376], sodium citrate 0.1 M, pH 5.0, 0.25% Triton X-100) was added to each well and the plates were incubated at 37° C. for 2-5 h, according to the cell type (hexosaminidase activity changes according to the cell type). […] Blank control was the same as described before.
Data analysis was performed calculating the percentage of cell viability normalized vs. the values of negative control, which was considered equal to 100%. The dose/response curve was fitted through the sigmoidal equation dose-response (variable slope) and the EC50 values were calculated as follow: Y=Bottom+(Top−Bottom)/(1+10^{[(Log EC50−X)*HillSlope]},

In general, EC50 refers to the concentration needed to bring the measured effect to its halfway point. As a reminder, the viability is a read-out of living cells in per cent, often relative to untreated cells. As for `CC(C)C[C@H](NC(=O)[C@H](CCCCN)NC(=O)[C@@H](NC(=O)[C@@H](N)CCCNC(=N)N)C(C)C)C(=O)N[C@H](C(=O)N[C@@H](CC(N)=O)C(=O)N[C@@H](CC(C)C)C(=O)NC1(C)CCCCCCC=CCCCC(C)(C(=O)N[C@H](C(=O)N2CCC[C@H]2C(N)=O)C(C)C)NC(=O)[C@H](CCC(=O)O)NC(=O)[C@H](CCCNC(=N)N)NC(=O)[C@H](CC(C)C)NC(=O)[C@H]([C@@H](C)O)NC(=O)[C@H](C)NC(=O)[C@H](Cc2ccccc2)NC1=O)C(C)C` (stereo partly drawn) [H14] (H-RVKLVNL[X1]FATLRE[ξαMeNle(6-ylidene)]VP-NH2; staple 8-15; N-terminus and C-terminus assumed), the EC50 with HL-60 is approximately 14 µM; with MCF-7 it was approximately 9 µM; with NCI-H187, approximately 10 µM. In data set [1] (H14 4 μM), the viability at 24 h, 4 µM was found to be 113%. Also, in data set [1] (H14 14 μM), the viability at 24 h, 14 µM was 119%. For the same compound, the “toxicity for normal hepatocytes (in words)” value with Human hepatocytes is on record as “not toxic”.
